Results published in patent US11421006B2, “T cell epitopes from Cockroach and methods of making and using same” (LA JOLLA INSTITUTE FOR ALLERGY AND IMMUNOLOGY, priority 2012, dated 2022).
Values joined by “and” are separate entries in the source; they are usually repeats but may differ in a detail not shown here. Equal values may be shown once.

Tested on: Bla g-specific T cells (PBMC)
Test: ELISPOT assays: IL-5, IFN-γ and IL-10 production by in vitro expanded PBMC of Cockroach-allergic donors
Type: cell-based, human
Details: for IFNγ / IL-5: individual peptide, one line per responding donor; for Total SFCs: IL-5 plus IFN-γ, summed over responding donors; for Cumulative Response: cumulative over regions ranked by total SFCs; for Donors Responding: number of allergic donors (34 tested) with T cell response to the region; for % Total Response: share of total Bla g specific response; for POST-SIT IFNg / POST-SIT IL-5 / POST-SIT IL-10: 6 months after initiation of SIT; for PRE-SIT IL-5 / PRE-SIT IL-10 / PRE-SIT IFNg: before SIT; for PRE-SIT IFNg: one line per donor/peptide
Procedure: In vitro expansion of Bla g-specific T cells: PBMC were cultured in RPMI 1640 (V Scientific, Tarzana, Calif.) supplemented with 5% human serum (Cellgro, Herndon, Va.) at a density of 2×10^6 cells/ml in 24-well plates (BD Biosciences, San Jose, Calif.) and stimulated with 25 μg/ml German Cockroach (Blatella germanica; Bla g) extract (Greer, Lenoir, N.C.), or individual peptides. […] On day 14, cells were harvested and screened for reactivity against Bla g-specific peptide pools or individual peptides. ELISPOT assays: The production of IL-5, IFN-γ, and IL-10 was analyzed in ELISPOT assays. […] Cells were then incubated at a density of 1×10^5/well either with peptide pools or individual peptides (10 μg/ml), German Cockroach extract (25 μg/ml), PHA (10 μg/ml), or medium (containing 1% DMSO corresponding to the percentage of DMSO in the pools/peptides) as a control. […] Louis, Mo.). Spots were counted by computer-assisted image analysis (Zeiss, KS-ELISPOT reader, Munich, Germany). Each assay was performed in triplicate. The level of statistical significance was determined with a Student's t-test using the mean of triplicate values of the response against relevant pools or individual peptides versus the response against the DMSO control.

Row | Sequence | IFNγ | IL-5 | Total SFCs | Cumulative Response | Donors Responding | % Total Response | T cell response pattern (IL-5 / IFN-γ), in words | POST-SIT IFNg | POST-SIT IL-5 | POST-SIT IL-10 | PRE-SIT IL-5 | PRE-SIT IL-10 | PRE-SIT IFNg
1 | ALREKVLGLPAIKAW (listed as Blattella germanica) | 843 SFC and 100 SFC and 0 SFC and 183 SFC and 147 SFC and 1690 SFC | 0 SFC (3×) and 267 SFC and 380 SFC and 1087 SFC | – | – | – | – | – | – | – | – | – | – | –
2 | EAMEKELREAFRLYD (listed as Blattella germanica) [Region 21, Bla g 6 position 86] | 0 SFC | 53 SFC | 53 SFCs | 99.8% | 1 | 0.2% | – | – | – | – | – | – | –
3 | EEFVSLASRFLVEED (listed as Blattella germanica) | 220 SFC | 0 SFC | – | – | – | – | – | – | – | – | – | – | –
4 | EFVTLAAKFIIEEDS (listed as Blattella germanica) [Region 19, Bla g 6 position 71] | 0 SFC | 443 SFC | 443 SFCs | 91.8% | 1 | 1.8% | – | – | – | – | – | – | –
5 | EQISVLRKAFDAFDR (listed as Blattella germanica) | 0 SFC | 340 SFC | – | – | – | – | – | – | – | – | – | – | –
6 | EVVKANGGYLAAGKL (listed as Blattella germanica) | 80 SFC and 380 SFC | 467 SFC and 0 SFC | – | – | – | – | – | – | – | – | – | – | –
7 | FAVATITHAAELQRV (listed as Blattella germanica) [Region 5, Bla g 2 position 11] | 855 SFC | 0 SFC | 855 SFCs | 86.9% | 1 | 3.5% | only associated with IFN-γ production | – | – | – | – | – | –
8 | FETIVVTVDSLPEFK (listed as Blattella germanica) [Region 1, Bla g 1 position 351] | 167 SFC | 0 SFC | 167 SFCs | 98.5% | 1 | 0.7% | – | – | – | – | – | – | –
9 | FLLSYGEKDFEDYRF (listed as Blattella germanica) | 0 SFC (2×) and 77 SFC and 127 SFC | 1537 SFC and 0 SFC and 203 SFC and 193 SFC | – | – | – | – | – | – | – | – | – | – | –
10 | GEPIRFLLSYGEKDF (listed as Blattella germanica) | 205 SFC | 0 SFC | – | – | – | – | – | – | – | – | – | – | –
11 | GNQNFLTVFDSTSCN (listed as Blattella germanica) [Region 7, Bla g 2 position 46] | 55 SFC | 0 SFC | 55 SFCs | 99.6% | 1 | 0.2% | only associated with IFN-γ production | – | – | – | – | – | –
12 | GYITTNVLREILKEL (listed as Blattella germanica) [Region 25] | 0 SFC | 50 SFC | 50 SFCs | 100.0% | 1 | 0.2% | – | 0 SFC/10^6 | 0 SFC/10^6 | 0 SFC/10^6 | 50 SFC/10^6 | 0 SFC/10^6 | 0 SFC/10^6
13 | HFFIGDFFVDHYYSE (listed as Blattella germanica) [Region 9, Bla g 2 position 321] | 250 SFC | 0 SFC | 250 SFCs | 96.8% | 1 | 1.0% | – | – | – | – | – | – | –
14 | HMAKEDLVANQPNLK (listed as Blattella germanica) | 610 SFC | 273 SFC | – | – | – | – | – | – | – | – | – | – | –
15 | ISSQYYIQQNGNLCY (listed as Blattella germanica) [Region 8, Bla g 2 position 296] | 153 SFC | 0 SFC | 153 SFCs | 99.1% | 1 | 0.6% | – | – | – | – | – | – | –
16 | IVQTLNAMPEYQNLL (listed as Blattella germanica) | 153 SFC | 87 SFC | – | – | – | – | – | – | – | – | – | – | –
17 | LRKAFDAFDREKSGS (listed as Blattella germanica) | 90 SFC | 327 SFC | – | – | – | – | – | – | – | – | – | – | –
18 | MVGTILEMLGHRLDD (listed as Blattella germanica) [Region 24, Bla g 6 position 31] | 0 SFC | 50 SFC | 317 SFCs | 95.8% | 2 | 1.3% | – | 0 SFC/10^6 | 0 SFC/10^6 | 0 SFC/10^6 | 50 SFC/10^6 | 0 SFC/10^6 | 0 SFC/10^6
19 | MVGTILEMLGTRLDQ (listed as Blattella germanica) | 0 SFC | 267 SFC | – | – | – | – | – | – | – | – | – | – | –
20 | PEFQSIVQTLNAMPE (listed as Blattella germanica) | 87 SFC | 0 SFC | – | – | – | – | – | – | – | – | – | – | –
21 | PEFQSIVQTLNAMPEYQNLL (listed as Blattella germanica) [Region 3, Bla g 1 position 40] | – | – | 327 SFCs | 93.2% | 2 | 1.3% | – | 0 SFC/10^6 | 0 SFC/10^6 | 0 SFC/10^6 | 87 SFC/10^6 | 0 SFC/10^6 | 153 SFC/10^6
22 | PELQNFLNFLEANGL (listed as Blattella germanica) [Region 4, Bla g 1 position 281] | 323 SFC | 0 SFC | 323 SFCs | 94.5% | 1 | 1.3% | – | – | – | – | – | – | –
23 | PEQIQLLKKAFDAFD (listed as Blattella germanica) [Region 23, Bla g 6 position 6] | 0 SFC | 1172 SFC and 73 SFC | 1245 SFCs | 66.6% | 2 | 5.1% | only IL-5 production | – | – | – | – | – | –
24 | PLYKLVHVFINTQYA (listed as Blattella germanica) [Region 6, Bla g 2 position 26] | 240 SFC | 0 SFC | 240 SFCs | 97.8% | 1 | 1.0% | – | – | – | – | – | – | –
25 | SGTVDFDEFMEMMTG (listed as Blattella germanica) [Region 22, Bla g 6 position 140] | 0 SFC | 57 SFC | 57 SFCs | 99.4% | 1 | 0.2% | – | – | – | – | – | – | –
26 | SMPFGKTPVLEIDGK (listed as Blattella germanica) [Region 11, Bla g 5 position 46] | 57 SFC and 250 SFC | 0 SFC and 567 SFC | 874 SFCs | 83.4% | 2 | 3.6% | – | – | – | – | – | – | –
27 | VLGLPAIKAWVAKRP (listed as Blattella germanica) | 50 SFC and 73 SFC | 0 SFC and 133 SFC | – | – | – | – | – | – | – | – | – | – | –
